Tested on: TFEB
Assay: TFEB nuclear translocation assay, HeLa wt cells
Assay type: cell-based
Conditions: 2 hrs compound treatment, Table 1 does not say HeLa wt or TRPML1 KO
Method in brief: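 HeLa wt or TRPML1 KO cells treated 2 hrs with compounds at 37° C, fixed in 4% PFA, immunostained with anti-TFEB plus Alexa 488 secondary and Hoechst. Imaged at ×20, four fields/well; read-out is nuclear/perinuclear-ring TFEB intensity ratio, reported as AC50.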

Compound	AC50 [µM]	AC50 (Homo sapiens, HeLa, 2 h) [µM]
CC(c1cccc(F)c1N1CCCCC1)S(=O)(=O)c1ccc(S(=N)(=O)C(F)F)cc1 (single isomer, unassigned) [Compound A-939, (difluoromethyl)(4-((1-(3-fluoro-2-(piperidin-1-yl)phenyl)ethyl)sulfonyl)phenyl)(imino)-l6-sulfanone]	2.01 to 8	–
CP(C)(=O)c1ccc(S(=O)(=O)Nc2ccccc2N2CCC(c3ccc(F)cc3F)CC2)cc1 [Compound A-176, N-{2-[4-(2,4-difluorophenyl)piperidin-1-yl]phenyl}-4-(dimethylphosphoryl)benzene-1-sulfonamide]	–	≥ 10
COCC1(C)CCN(c2ccccc2NS(=O)(=O)c2ccc(C(C)(C)C(=O)OC)cc2)CC1 [Compound A-705, methyl 2-[4-({2-[4-(methoxymethyl)-4-methylpiperidin-1-yl]phenyl}sulfamoyl)phenyl]-2-methylpropanoate]	–	8.01 to 9.99
COCC1(C)CCN(c2ccccc2NS(=O)(=O)Cc2ccc(S(=O)(=O)COC)cc2)CC1 [Compound A-747, 1-(4-methoxymethanesulfonylphenyl)-N-{2-[4-(methoxymethyl)-4-methylpiperidin-1-yl]phenyl}methanesulfonamide]	–	≥ 10
Cc1ccc([S+]([O-])Cc2ccccc2N2CCC(c3ccc(Cl)cc3F)CC2)cc1 (stereo not drawn) [Compound A-145, 4-(4-chloro-2-fluorophenyl)-1-(2-((p-tolylsulfinyl)methyl)phenyl)piperidine]	–	≥ 10
COc1ccc(S(=O)(=O)Nc2ccccc2-c2ncc(F)cc2F)cc1 [Compound A-180, N-(2-(3,5-difluoropyridin-2-yl)phenyl)-4-methoxybenzenesulfonamide]	–	8.01 to 9.99
CN1CC2(CCN(c3ccccc3NS(=O)(=O)c3ccc(S(=O)(=O)C(F)F)cc3)CC2)c2ccc(F)cc21 [Compound A-246, 4-difluoromethanesulfonyl-N-(2-{6-fluoro-1-methyl-1,2-dihydrospiro[indole-3,4′-piperidin]-1′-yl}phenyl)benzene-1-sulfonamide]	–	≤ 2
O=S(=O)(Nc1cccnc1N1CCN(c2ncc(Cl)cc2F)CC1)c1ccc(OC(F)(F)F)cc1 [Compound A-116, N-{2-[4-(5-chloro-3-fluoropyridin-2-yl)piperazin-1-yl]pyridin-3-yl}-4-(trifluoromethoxy)benzene-1-sulfonamide]	–	≥ 10
CC(c1cccc(F)c1N1CCC(CN2C3CCC2COC3)CC1)S(=O)(=O)c1ccc(S(C)(=O)=O)cc1 (stereo not drawn) [Compound A-904, 8-[(1-{2-fluoro-6-[1-(4-methanesulfonylbenzenesulfonyl)ethyl]phenyl}piperidin-4-yl)methyl]-3-oxa-8-azabicyclo[3.2.1]octane]	–	2.01 to 8
O=S(=O)(Nc1ccccc1N1CCC(c2ccc(Cl)cc2F)CC1)c1ccccc1CO [Compound A-106, N-{2-[4-(4-chloro-2-fluorophenyl)piperidin-1-yl]phenyl}-2-(hydroxymethyl)benzene-1-sulfonamide]	–	≥ 10
COc1ccc(S(=O)(=O)Nc2ncccc2N2CCN(c3ncc(Cl)cc3F)CC2)cc1 [Compound A-135, N-{3-[4-(5-chloro-3-fluoropyridin-2-yl)piperazin-1-yl]pyridin-2-yl}-4-methoxybenzene-1-sulfonamide]	–	≥ 10
O=S(=O)(Nc1ccccc1N1CCC(c2ccc(F)cc2F)CC1)c1ccc(C(F)F)nc1 [Compound A-136, 6-(difluoromethyl)-N-{2-[4-(2,4-difluorophenyl)piperidin-1-yl]phenyl}pyridine-3-sulfonamide]	–	≤ 2
CC(C)(C)C(=O)N1CCN(c2ccccc2NS(=O)(=O)Cc2ccc(Br)cc2F)CC1 [Compound A-488, 1-(4-bromo-2-fluorophenyl)-N-{2-[4-(2,2-dimethylpropanoyl)piperazin-1-yl]phenyl}methanesulfonamide]	–	8.01 to 9.99
CC(c1cccc(F)c1N1CCC(CN2CCC(F)(F)CC2)CC1)S(=O)(=O)c1ccc(C(F)F)cc1 (single isomer, unassigned) [Compound A-997, 1-((1-(2-(1-((4-(difluoromethyl)phenyl)sulfonyl)ethyl)-6-fluorophenyl)piperidin-4-yl)methyl)-4,4-difluoropiperidine]	–	≤ 2
COCC1(C)CCN(c2ccccc2NS(=O)(=O)c2ccc(C(=O)C(C)C)cc2)CC1 [Compound A-641, N-{2-[4-(methoxymethyl)-4-methylpiperidin-1-yl]phenyl}-4-(2-methylpropanoyl)benzene-1-sulfonamide]	–	8.01 to 9.99
CP(C)(=O)c1ccc(S(=O)(=O)Nc2ccccc2N2CCC(c3c(F)cccc3F)CC2)cc1 [Compound A-177, N-{2-[4-(2,6-difluorophenyl)piperidin-1-yl]phenyl}-4-(dimethylphosphoryl)benzene-1-sulfonamide]	–	≥ 10
C[C@@H]1COC[C@@H](C)N1CC1CCN(c2c(F)cccc2NS(=O)(=O)c2ccc(S(=N)(=O)N(C)C)cc2)CC1 (stereo partly drawn) [Compound A-835, N-(2-(4-(((3S,5S)-3,5-dimethylmorpholino)methyl)piperidin-1-yl)-3-fluorophenyl)-4-(N,N-dimethylsulfamidimidoyl)benzenesulfonamide]	–	≤ 2

Compound	AC50 [µM]	AC50 (Homo sapiens, HeLa, 2 h) [µM]
Cc1nn(S(=O)(=O)c2ccc(S(=O)(=O)N(C)C)cc2)cc1N1CCC(c2ccc(Cl)cc2F)CC1 [Compound A-50, 4-((4-(4-(4-chloro-2-fluorophenyl)piperidin-1-yl)-3-methyl-1H-pyrazol-1-yl)sulfonyl)-N,N-dimethylbenzenesulfonamide]	–	2.01 to 8
CC(c1cccc(F)c1N1CCCCC1)S(=O)(=O)c1ccc2c(c1)CCS2(=N)=O (single isomer, unassigned) [Compound A-959]	–	≥ 10
COCC1(C)CCN(c2ccccc2NS(=O)(=O)c2ccc3c(c2)CCOC3)CC1 [Compound A-727, N-{2-[4-(methoxymethyl)-4-methylpiperidin-1-yl]phenyl}-3,4-dihydro-1H-2-benzopyran-6-sulfonamide]	–	2.01 to 8
C[C@@H]1COC[C@H](C)N1C[C@H]1CCN(c2c(F)cccc2NS(=O)(=O)c2ccc(S(=O)(=O)N(C)C)cc2)C1 [Compound A-984]	–	≤ 2
CC(C)(C)C(=O)N1CCN(c2ccccc2NS(=O)(=O)Cc2ccc3c(c2)COCC3)CC1 [Compound A-501, 1-(3,4-dihydro-1H-2-benzopyran-7-yl)-N-{2-[4-(2,2-dimethylpropanoyl)piperazin-1-yl]phenyl}methanesulfonamide]	–	2.01 to 8
CC(c1cccc(F)c1N1CCC(CN2C3COCC2C3)CC1)S(=O)(=O)c1ccc(S(=O)(=O)N(C)C)cc1 [Compound A-869, rel-4-[(1R)-1-{3-fluoro-2-[4-({3-oxa-6-azabicyclo[3.1.1]heptan-6-yl}methyl)piperidin-1-yl]phenyl}ethanesulfonyl]-N,N-dimethylbenzene-1-sulfonamide]	–	2.01 to 8
CN(C)S(=O)(=O)c1ccc(S(=O)(=O)Nc2cccc(F)c2N2CCC(CN3CC4CC(C3)O4)CC2)cc1 [Compound A-791, N4-{3-fluoro-2-[4-({6-oxa-3-azabicyclo[3.1.1]heptan-3-yl}methyl)piperidin-1-yl]phenyl}-N1,N1-dimethylbenzene-1,4-disulfonamide]	–	≥ 10
CS(=O)(=O)c1ccc(S(=O)(=O)Nc2ccccc2N2CCC(c3c(F)cccc3F)CC2)cc1 [Compound A-124, N-{2-[4-(2,6-difluorophenyl)piperidin-1-yl]phenyl}-4-methanesulfonylbenzene-1-sulfonamide]	–	≤ 2
COCC1(C)CCN(c2ccccc2NS(=O)(=O)c2ccc(OC)cc2)CC1 [Compound A-538, 4-methoxy-N-{2-[4-(methoxymethyl)-4-methylpiperidin-1-yl]phenyl}benzene-1-sulfonamide]	–	≤ 2
O=S(=O)(Nc1ccccc1N1CCC(c2ccc(Cl)cc2F)CC1)c1cccc(Cl)c1 [Compound A-77, 3-chloro-N-{2-[4-(4-chloro-2-fluorophenyl)piperidin-1-yl]phenyl}benzene-1-sulfonamide]	–	≤ 2
CC(C1CCN(c2c(F)cccc2NS(=O)(=O)c2ccc(S(=N)(=O)N(C)C)cc2)CC1)N1C[C@@H](C)O[C@@H](C)C1 (stereo partly drawn) [Compound A-872A, N-(2-(4-(1-((2S,6R)-2,6-dimethylmorpholino)ethyl)piperidin-1-yl)-3-fluorophenyl)-4-(N,N-dimethylsulfamidimidoyl)benzenesulfonamide]	–	≤ 2
COCC1(C)C2CCC1CN(c1ccccc1NS(=O)(=O)c1ccc(S(=O)(=O)N(C)C)cc1)C2 (stereo not drawn) [Compound A-829, N4-{2-[8-(methoxymethyl)-8-methyl-3-azabicyclo[3.2.1]octan-3-yl]phenyl}-N1,N1-dimethylbenzene-1,4-disulfonamide]	–	≤ 2
O=S(=O)(Nc1cc(Cl)ccc1N1CCC(c2ccc(Cl)cc2F)CC1)c1ccc2c(c1)CCC2 [Compound A-313, N-{5-chloro-2-[4-(4-chloro-2-fluorophenyl)piperidin-1-yl]phenyl}-2,3-dihydro-1H-indene-5-sulfonamide]	–	≤ 2
CN(C)S(=O)(=O)c1ccc(S(=O)(=O)Nc2ccccc2N2CCC(C)(c3ccc(Cl)cc3F)CC2)cc1 [Compound A-204, N4-{2-[4-(4-chloro-2-fluorophenyl)-4-methylpiperidin-1-yl]phenyl}-N1,N1-dimethylbenzene-1,4-disulfonamide]	–	≤ 2
CN(C)S(=O)(=O)c1ccc(S(=O)(=O)Nc2ccccc2N2CCN(c3ccncc3F)CC2)cc1 [Compound A-57, N4-{2-[4-(3-fluoropyridin-4-yl)piperazin-1-yl]phenyl}-N1,N1-dimethylbenzene-1,4-disulfonamide]	–	2.01 to 8
CN1CC2(CCC(c3ccccc3NS(=O)(=O)c3ccc(S(=O)(=O)N(C)C)cc3)CC2)c2ccc(F)cc21 (stereo not drawn) [Compound A-305, N1-(2-(6′-fluoro-1′-methylspiro[cyclohexane-1,3′-indolin]-4-yl)phenyl)-N4,N4-dimethylbenzene-1,4-disulfonamide]	–	2.01 to 8
